As usually defined, the IC50 is the concentration needed to halve the response being measured. Lower therefore signals higher potency.

Data on ten compounds can be found in US12145947B2, “Pyrimidine based modulators and uses thereof” (Quanta Therapeutics, Inc., priority 2022, dated 2024).

Structures are written as SMILES. Bounds are passed on as bounds.

Assay [1] deals with T1, GST-tagged KRAS-G12D (2-169) (Homo sapiens, UniProt P01116, G12D).
T1 construct: GST-tagged KRAS-G12D (2-169, Reaction Biology, MSC-11-539); purchased Reaction Biology MSC-11-539 (KRAS G12D); MSC-11-502 (SOS1cat)
T1 sequence (P01116 2-169 isoform P01116-2 G12D): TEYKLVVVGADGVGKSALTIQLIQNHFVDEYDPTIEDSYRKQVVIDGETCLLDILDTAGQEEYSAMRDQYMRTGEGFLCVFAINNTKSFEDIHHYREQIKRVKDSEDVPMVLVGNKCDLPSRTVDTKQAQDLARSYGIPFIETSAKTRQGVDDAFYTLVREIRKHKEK
The assay is described as follows: Nucleotide exchange assay (NEA), SOS-mediated, HTRF, KRAS G12D. Format: biochemical. The following applies: Table 4; IC50 extracted at 30 min. The source says: This activity is tightly regulated by GTPase activating proteins (GAPs) and guanine nucleotide exchange factors (GEFs). GEFs, such as SOS1/2, activate Ras proteins by exchanging GDP for GTP, thus returning Ras to its active conformation (Simanshu, Nissley, & McCormick, 2017). […] Homogenous time resolved fluorescence (HTRF) was used to detect SOS-mediated binding of a fluorescent GTP analog, GTP-DY-647P1 (Jena Biosciences NU-820-647P1) to GST-tagged KRAS-G12D (2-169, Reaction Biology, MSC-11-539) or to GST-tagged KRAS-G12V (2-169, Reaction Biology, MSC-11-540).
GST-tagged KRAS-G12D (2-169) and anti-GST MAb Tb Cryptate Gold (CisBio 61GSTTLB) were diluted into assay buffer (20 mM HEPES, pH 7.3, 150 mM NaCl, 5 mM MgCl2, 0.05% BSA 0.0025% NP40, 1 mM DTT) to prepare a 2.5× donor solution. 5× compound was added to the protein mixture and incubated for 1 h at RT. 2.5× acceptor solution containing SOSIcat (564-1049, Reaction Biology MSC-11-502) and GTP-DY-647P1 were then added to the donor KRAS mixture such that the final concentration of the reaction contained 5 nM GST-tagged KRAS-G12D (2-169), 20 nM SOScat, and 150 nM GTP. The reaction was monitored using at RT with the Envision multimode plate reader (Ex/Em 337/665, […]) up to 90 minutes at 5 minute intervals. To monitor KRAS-G12V Sos-mediated nucleotide exchange, 80 nM SOS was added to reaction instead of 20 nM. All other components were the same as previously described. Data was blanked to reactions without SOS1 and % inhibition was calculated such that DMSO only=0% and blank=100%. Curve fitting was done using a 4 parameter fit. Reported IC50 values were extracted at 30 min and 90 min for the KRAS-G12D and KRAS-G12V assays, respectively.
Curve fitting was done using a 4 parameter fit. NEA KRAS G12D IC50 (uM) values of selected compounds are depicted in Table 2 with compounds having a value <0.01 uM as ++++; >0.01 uM to 0.1 uM as +++; >0.1 uM to 1 uM as ++; >1 uM to 20 uM as +; and >20 uM as NA.
On the technique in general: TR-FRET usually uses a lanthanide donor and a delayed reading to cut background.

For a further assay, the target named is T2, KRAS G12D/RAF1 (Homo sapiens, UniProt P01116, G12D).
T2 construct: His6-MBP (N, cleaved yes); made in house; host or cells: E. coli
T2 sequence (P01116 with tags, fused parts or gaps isoform P01116-2 G12D): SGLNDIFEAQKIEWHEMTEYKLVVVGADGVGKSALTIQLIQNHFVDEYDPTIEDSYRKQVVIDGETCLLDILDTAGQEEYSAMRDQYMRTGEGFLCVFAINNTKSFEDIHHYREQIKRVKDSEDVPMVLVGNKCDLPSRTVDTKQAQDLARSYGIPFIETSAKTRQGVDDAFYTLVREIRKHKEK
The assay is described as follows: Protein-protein interaction (PPI) HTRF assay KRAS G12D/RAF1. In kind it is binding. The following applies: Table 4. The protocol:
Biotinylated KRAS wt and KRAS G12DNV proteins were expressed and purified in conditions similar to those previously reported (Tran, et al., 2021) (Zhang, et al., 2020). Briefly, KRAS (1-169) proteins were expressed in E. coli at 18° C. with an upstream TEV cleavage site (ENLFYQS (SEQ ID NO: 6)) followed an Avi tag sequence ([…] (SEQ ID NO: 7)). KRAS expression constructs contained both a His6 (SEQ ID NO: 8) and maltose-binding protein (MBP) tags at the N-terminus for Ni-NTA column purification prior to overnight TEV cleavage and MBP column purification. The avi-tagged NRAS expression construct contained both a His6 tag (SEQ ID NO: 8) and SUMO cleavage sige at the N-terminus for Ni-NTA column purification followed by His-ULPi digestion overnight. All avi-tagged RAS proteins were dialyzed into buffer containing ATP, biotin, and BirA followed by purification over a second Ni-NTA column and then run over a size exclusion HiLoad™ 26/600 Superdex™ column in 20 mM HEPES, pH 7.5, 300 mM NaCl, 5 mM MgCl2, and 1 mM TCEP. Fractions containing the protein of interest were pooled, concentrated, and confirmed by intact mass spectrometry. To prepare ‘GTP’ loaded KRAS and NRAS, biotinylated KRAS or NRAS was nucleotide exchanged from GDP-bound protein to GppNHp-bound (Jena Biosciences, NU-401-50) protein in the presence of alkaline phosphatase and excess GppNHp as previously described and the resulting nucleotide content was confirmed by HPLC reverse phase analytical chromatography (Donohue, et al., 2019) (Tran, et al., 2021).
His-tagged RAF1 (52-131) was similarly expressed in E. coli at 18° C. overnight with an upstream TEV cleavage site. His-tagged RAF1 expression construct contained both a His6 (SEQ ID NO: 8) and MBP tags at the N-terminus for Ni-NTA column purification followed by MBP-tagged TEV digestion overnight. RAF1 protein samples were further purified over a MBP column followed by a Ni-NTA column and a second MBP column. The fractions containing the protein of interest were pooled, concentrated, and further purified over a HiLoad™ 16/600 Superdex™ 75 pg size exclusion column into 20 mM HEPES, pH8.0, 200 mM NaCl, 5 mM TCEP.
When RAS proteins are in the active GTP-bound conformation, they bind the effector protein RAF1 at the N-terminus Ras-binding domain (RBD, residues 52-131) (Tran, et al., 2021). Homogenous time resolved fluorescence (HTRF) was used to monitor the interaction between wt or mutant KRAS and RAF1 or wt NRAS and RAFT. Compounds were assayed in the presence of KRAS G12D/V and RAF1 versus wt KRAS to assess activity against mutant and w.t. KRAS. Similarly, compounds were then assayed in the presence of w.t. NRAS and RAF1 to assess RAS isoform selectivity. In all assay formats, His-tagged RAF1 protein was incubated with the HTRF donor, anti-6His (“6His” disclosed as SEQ ID NO: 8) Tb Cryptate gold (Cisbio 61DB10RDF), and biotinylated RAS proteins were incubated with the HTRF acceptor, streptavidin-d2 (CisBio 610SADLA). The intensity of the fluorescence signal emitted is proportional to binding between the two proteins. The donor solution was prepared by mixing 16 nM His-tagged RAF1 in protein dilution buffer with 1:100 anti-6His (“6His” disclosed as SEQ ID NO: 8) Tb cryptate in PPI-Terbium detection buffer. 16 nM biotinylated RAS protein was diluted into protein dilution buffer (50 mM Tris-HCl pH 7.5, 150 mM NaCl, 0.1 mM MgCl2, 1 mM TCEP, 0.005% Tween20) and mixed with 1:2000 Streptavidin-d2 diluted in PPI-Terbium detection buffer (CisBio 61DBTORDF). 50× compound in DMSO was mixed with 16 nM KRAS-acceptor solution and incubated for 30 minutes at room temperature. After compound pre-incubation with KRAS, the RAF1 donor solution was added to the KRAS-acceptor solution and incubated for 1 hour at room temperature. The fluorescence signal emitted was monitored at 665 nm and 615 nm using an Envision multimode plate reader. […]

In the case of `N#Cc1c(N)sc2c1C1(CC2)CN(c2nc(OC[C@@]34CCCN3C[C@H](F)C4)nc(N3CCCC(C#N)CC3)c2F)C1` (stereo partly drawn) [Compound 51, 2-amino-1′-[6-(4-cyanoazepan-1-yl)-5-fluoro-2-[[(2R,8S)-2-fluoro-1,2,3,5,6,7-hexahydropyrrolizin-8-yl]methoxy]pyrimidin-4-yl]spiro[5,6-dihydrocyclopenta[b]thiophene-4,3′-azetidine]-3-carbonitrile], the IC50 lay in the range of 10 to 100 nM in assay [1] and 1 to 10 µM against KRAS G12D/RAF1.
On the same counts, the results for `N#Cc1c(N2C[C@H]3CC[C@@H](C2)N3)nc(OCc2cc(Cl)[nH]n2)nc1N1CC2(CCc3sc(N)c(C#N)c32)C1` [Compound 105, 2-amino-1′-[2-[(5-chloro-1H-pyrazol-3-yl)methoxy]-5-cyano-6-[(1R,5S)-3,8-diazabicyclo[3.2.1]octan-3-yl]pyrimidin-4-yl]spiro[5,6-dihydrocyclopenta[b]thiophene-4,3′-azetidine]-3-carbonitrile] are under 10 nM and 10 to 100 µM.
On the same counts, the results for `N#Cc1c(N2CCC(O)C(O)CC2)nc(OC[C@@]23CCCN2C[C@H](F)C3)nc1N1CC2(CCc3sc(N)c(C#N)c32)C1` (stereo partly drawn) [Compound 38, 2-amino-1′-[5-cyano-6-(4,5-dihydroxyazepan-1-yl)-2-[[(2R,8S)-2-fluoro-1,2,3,5,6,7-hexahydropyrrolizin-8-yl]methoxy]pyrimidin-4-yl]spiro[5,6-dihydrocyclopenta[b]thiophene-4,3′-azetidine]-3-carbonitrile] are 10 to 100 nM and 1 to 10 µM.
As for `N#Cc1c(N2C[C@H]3CC[C@@H](C2)N3)nc(OCc2[nH]ncc2F)nc1N1CC2(CCc3sc(N)c(C#N)c32)C1` [Compound 90, 2-amino-1′-[5-cyano-6-[(1R,5S)-3,8-diazabicyclo[3.2.1]octan-3-yl]-2-[(4-fluoro-1H-pyrazol-5-yl)methoxy]pyrimidin-4-yl]spiro[5,6-dihydrocyclopenta[b]thiophene-4,3′-azetidine]-3-carbonitrile], the results for the half-maximal inhibitory concentration (IC50) (in assay [1]; on KRAS G12D/RAF1) were 10 to 100 nM and 10 to 100 µM, respectively.
On the same counts, the results for `N#Cc1c(N2C[C@H]3CC[C@@H](C2)N3)nc(OCC2(CN3CCOCC3)CC2)nc1N1CC2(CCc3sc4[nH]cnc(=O)c4c32)C1` [Compound 39, 2-[[1-(morpholinomethyl)cyclopropyl]methoxy]-4-(12-oxospiro[7-thia-9,11-diazatricyclo[6.4.0.02,6]dodeca-1(8), 2(6), 10-triene-3,3′-azetidine]-1′-yl)-6-[(1R,5S)-3,8-diazabicyclo[3.2.1]octan-3-yl]pyrimidine-5-carbonitrile] are 100 to 1000 nM and over 100 µM.
For the compound `N#Cc1c(N2C[C@H]3CC[C@@H](C2)N3)nc(OCc2n[nH]cc2Cl)nc1N1CC2(CCc3sc(N)c(C#N)c32)C1` [Compound 104, 2-amino-1′-[2-[(4-chloro-1H-pyrazol-3-yl)methoxy]-5-cyano-6-[(1R,5S)-3,8-diazabicyclo[3.2.1]octan-3-yl]pyrimidin-4-yl]spiro[5,6-dihydrocyclopenta[b]thiophene-4,3′-azetidine]-3-carbonitrile], the IC50 is under 10 nM in assay [1] and 10 to 100 µM at KRAS G12D/RAF1.
On the same counts, the results for `N#Cc1c(N2CCn3nncc3C2)nc(OC[C@@]23CCCN2C[C@H](F)C3)nc1N1CC2(CCc3sc(N)c(C#N)c32)C1` [Compound 55, 2-amino-1′-[5-cyano-6-(6,7-dihydro-4H-triazolo[1,5-a]pyrazin-5-yl)-2-[[(2R,8S)-2-fluoro-1,2,3,5,6,7-hexahydropyrrolizin-8-yl]methoxy]pyrimidin-4-yl]spiro[5,6-dihydrocyclopenta[b]thiophene-4,3′-azetidine]-3-carbonitrile] are 100 to 1000 nM and 10 to 100 µM.
For `N#Cc1cnc(OC[C@@]23CCCN2C[C@H](F)C3)nc1N1CC2(CCc3sc(N)c(C#N)c32)C1` [Compound 65, 2-amino-1′-[5-cyano-2-[[(2R,8S)-2-fluoro-1,2,3,5,6,7-hexahydropyrrolizin-8-yl]methoxy]pyrimidin-4-yl]spiro[5,6-dihydrocyclopenta[b]thiophene-4,3′-azetidine]-3-carbonitrile], in that order: 1000 to 20000 nM and 10 to 100 µM.
On the same counts, the results for `CN1CCc2c(cccc2Oc2nc(N3C[C@H]4CC[C@@H](C3)N4)c(C#N)c(N3CC4(CCc5sc(N)c(C#N)c54)C3)n2)C1` [Compound 57, 2-amino-1′-[5-cyano-2-[(2-methyl-3,4-dihydro-1H-isoquinolin-5-yl)oxy]-6-[(1R,5S)-3,8-diazabicyclo[3.2.1]octan-3-yl]pyrimidin-4-yl]spiro[5,6-dihydrocyclopenta[b]thiophene-4,3′-azetidine]-3-carbonitrile] are 1000 to 20000 nM and 10 to 100 µM.
As to `Cc1nc(COc2nc(N3C[C@H]4CC[C@@H](C3)N4)c(C#N)c(N3CC4(CCc5sc(N)c(C#N)c54)C3)n2)n[nH]1` [Compound 107, 2-amino-1′-[5-cyano-6-[(1R,5S)-3,8-diazabicyclo[3.2.1]octan-3-yl]-2-[(5-methyl-1H-1,2,4-triazol-3-yl)methoxy]pyrimidin-4-yl]spiro[5,6-dihydrocyclopenta[b]thiophene-4,3′-azetidine]-3-carbonitrile], the half-inhibitory concentration (IC50) in assay [1] was 10 to 100 nM; at KRAS G12D/RAF1, 10 to 100 µM.
